The results in this text go back to PubChem BioAssay (NCI).

The structures appear in SMILES notation.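 Where inhibition never reached the appropriate level, the endpoint shown equals the highest concentration tested. Otherwise, values were interpolated linearly from a five-concentration, 48-hour dose response in 96-well plates. TGI: total growth inhibition.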

Holding throughout (assay): NCI-60 cell line screen, 48 h
The subject of assay [1] is SN12C renal.
In assay [2] the test system is MDA-MB-231 breast.
Assay [3] relates to COLO 205 colon.
Assay [4] relates to OVCAR-5 ovarian.
For assay [5], the system named is M14 melanoma.
Assay [6] has as its system MALME-3M melanoma.
For assay [7], the system named is OVCAR-4 ovarian.
In assay [8] the test system is KM12 colon.
In assay [9] the test system is ACHN renal.
Assay [10] concerns SW-620 colon.
Assay [11] relates to HCC-2998 colon.
For assay [12], the system named is HS 578T breast.
Assay [13] has as its system SR leukemia.
The test system of assay [14] is HOP-62 NSCLC.
The test system of assay [15] is OVCAR-3 ovarian.

For the molecule `COc1ccc(/C=C/C(=O)NCC(NC(=O)/C=C/c2ccc(OC)c(OC)c2)C(=O)O)cc1OC` (stereo not given), the TGI in [1], in assay [2], in assay [3], in assay [4], in [5] and in assay [6] was over 100 µM in each case. Further, the TGI in assay [7], in [8], in [9], in [10], in assay [11] and in [12] was over 100 µM in each case. Moreover, the TGI in assay [13], in assay [14] and in assay [15] was over 100 µM throughout.

Consider `CCCCCCC(N)(CCCCCC)C(=O)Nn1c(C)ccc1C`, for which the TGI in [1], in assay [2], in assay [3], in assay [4], in assay [5] and in assay [6] was over 100 µM each time. The TGI in [7], in assay [8], in assay [9], in assay [10], in assay [11] and in assay [12] was over 100 µM in each case. Besides, the TGI in assay [13], in assay [14] and in [15] was over 100 µM each time.

In the case of `Cn1c(=O)nc2n(CCO)c(-c3ccccc3)c(-c3ccccc3)nc-2c1=O`, the TGI in [1], in assay [2], in assay [3], in assay [4], in assay [5] and in assay [6] was over 100 µM each time. Also, the TGI in assay [7], in [8], in assay [9], in assay [10], in [11] and in assay [12] was over 100 µM throughout. For the same molecule, the TGI in assay [13], in assay [14] and in [15] was over 100 µM throughout.

With `CC[C@@]1(O)C(=O)OCc2c1c(Cl)c1n(c2=O)Cc2cc3ccccc3nc2-1`, the TGI in assay [1] is over 61.8 µM; in [2], over 100 µM; in assay [3] it was over 100 µM; in assay [4] it was 85.8 µM; in assay [5] it was 9.04 µM; in [6], 42.1 µM. Moreover, the TGI in assay [7] was 63.1 µM; in [8] it was over 95.5 µM; in assay [9], 6.05 µM; in [10] it was over 100 µM; in [11] it was 80.6 µM; in assay [12], over 100 µM. Also, the TGI in assay [13] is over 23.7 µM; in assay [14] it was 8.03 µM; in [15] it was 22.1 µM.

As for `Cc1ccc(S(=O)(=O)N(c2ccccc2F)C2CCCCC2O)cc1` (stereo not given), the TGI was over 100 µM in [1]; over 100 µM in assay [2]; 71.3 µM in [3]; over 100 µM in [4]; over 100 µM in [5]; over 100 µM in assay [6]. The TGI in assay [7], in assay [8], in assay [9], in assay [10], in assay [11] and in [12] was over 100 µM each time. The TGI in assay [13] was 51.8 µM; in assay [14] it was over 100 µM; in [15], 66.9 µM.

With `CCOc1ccc(C2c3[nH]c4ccccc4c3CCN2C(=O)c2cccs2)cc1` (stereo not given), the TGI in [1], in [2], in assay [3], in assay [4], in [5] and in [6] was over 100 µM throughout. The TGI in [7], in assay [8], in assay [9], in assay [10], in assay [11] and in assay [12] was over 100 µM throughout. The TGI in assay [13], in [14] and in assay [15] was over 100 µM each time.

Take `O=C(CNC(=O)OCc1ccccc1)NCCCCC(NC(=O)OCc1ccccc1)C(=O)O` (stereo not given): the TGI in assay [1], in assay [2], in [3], in assay [4], in assay [5] and in [6] was over 100 µM each time. The TGI in [7], in [8], in assay [9], in assay [10], in assay [11] and in assay [12] was over 100 µM in each case. The TGI in assay [13], in assay [14] and in [15] was over 100 µM in each case.

For `Cc1ccc2c(c1)C(C1Cc3c(C)cccc3C1=O)OC2=O` (stereo not given), the TGI in [1], in [2], in assay [3], in assay [4], in assay [5] and in assay [6] was over 100 µM each time. Also, the TGI in [7], in assay [8], in assay [9], in assay [10], in assay [11] and in assay [12] was over 100 µM throughout. Further, the TGI in assay [13], in assay [14] and in assay [15] was over 100 µM each time.
